Data set [1] concerns endotoxin (LPS)-induced uveitis. As to the kind of experiment: Endotoxin-induced uveitis in rats (in vivo assay vi). Conditions: eyes of LPS-stimulated rats, topical, 1 mg/mL. The arrangement: species or system Lewis rats. As to the method: Male, Lewis rats (6-8 weeks old, Charles River UK Limited) are housed in cages of 3 at 19-21° C. with a 12 h light/dark cycle (07:00/19:00) and fed a standard diet of rodent chow and water ad libitum. […] Untreated rats are injected with PBS. […] Before administration, the solution or suspension to be administered is agitated for 5 minutes to ensure a uniform suspension. 6 hours after LPS dosing, animals are euthanized by overdose with pentobarbitone (i.v.). Following euthanasia, the right eye of each animal is enucleated and dissected into front (anterior) and back (posterior) sections around the lens. Each section is weighed and homogenised in 500 μL of sterile phosphate buffered saline followed by 20 minutes centrifugation at 12000 rpm at 4° C. The resulting supernatant is divided into 3 aliquots and stored at −80° C. until subsequent cytokine analysis by R&D DuoSet ELISA.

Data set [2] deals with PBMCs. The data set is described as follows: IFN gamma release in CD3/CD28 stimulated PBMC cells (assay c). Format: cell-based. Conditions: Homo sapiens, read-out: IC50 Values for Inhibition of Cytokine Release, PBMCs IFNγ. In short, it runs like this: (§1)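 Compound added to human PBMCs on anti-CD3/anti-CD28-coated wells (0.3 and 3 μg/mL respectively); 3-day culture. Sandwich ELISA of supernatant IL-2 or IFN gamma gives the read-out, with IC50 derived from the dose-response curve.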

A further data set deals with HT29 cells. As to the kind of experiment: IL-1β-induced IL-8 release in HT29 cells (assay d). The data set is classed as cell-based. Conditions: Homo sapiens, HT-29; IL-1β-stimulated HT29 cells; read-out: IC50 Values for Inhibition of Cytokine Release, HT29 cells IL-8. The protocol:
HT29 cells, a human colon adenocarcinoma cell line, are plated in a 96 well plate (24 hrs) and pre-treated with compounds at the desired concentration for 2 hours before addition of 5 ng/mL of IL-1β (Abcam) for 24 hours. Supernatants are harvested for IL-8 quantification by Sandwich ELISA (Duo-set, R&D System). The IC50 is determined from the dose response curve.

Data set [3] deals with PBMCs. As to the kind of experiment: Cell mitosis assay in PBMCs (assay g). The data set is classed as cell-based. Conditions: Homo sapiens, PBMC, test compound 5 μg/mL. In short, it runs like this:
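Human PBMCs from healthy donors, stimulated with 2% PHA for 48 hr, then exposed to test compounds for 20 hr, with demecolcine (0.1 μg/mL) added 2 hr before harvest. Cells fixed/permeabilised, stained for phospho-histone 3 and propidium iodide, and read by flow cytometry gated on lymphocytes. % mitosis inhibition vs 0.5% DMSO vehicle.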

In a further data set the target is c-Src (Homo sapiens (Human), UniProt P12931). As to the kind of experiment: c-Src enzyme inhibition (FRET, Z-LYTE). The data set is classed as biochemical. In short, it runs like this: (§2)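 Fluorescence-ratio kinase assay: 2 hr compound–enzyme preincubation at RT, 1 hr reaction with ATP added as 800 μM (c-Src) or 60 μM (Syk) solution. IC50 derived from percent inhibition curves.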

Data set [4] concerns PBMCs. The data set is described as follows: IL-2 release in CD3/CD28 stimulated PBMC cells (assay c). Format: cell-based. The settings on record: Homo sapiens, read-out: IC50 Values for Inhibition of Cytokine Release, PBMCs IL-2. Put shortly: as §1
Data set [5] concerns the target p38 MAPKα isoform (MAPK14) (Homo sapiens (Human), UniProt Q16539). The data set is described as follows: p38 MAPKα enzyme inhibition (FRET, Z-LYTE, Method 2). Format: biochemical. Put shortly:
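Z-LYTE FRET: p38 MAPKα (80 ng/mL for Method 1, 200 ng/mL for Method 2, pre-dilution) preincubated 2 hr RT with compound (4–0.004 μg/mL solutions), activity read via MAPKAP-K2 phosphorylation after 1 hr RT and 1 hr protease development. Coumarin/fluorescein ratio gives phosphorylation; % inhibition versus uninhibited control, IC50 from concentration-response curve.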

For a further data set, the target named is Syk (Homo sapiens (Human), UniProt P43405). The data set is described as follows: Syk enzyme inhibition (FRET, Z-LYTE). Format: biochemical. In short, it runs like this:
as §2

In data set [6] the test system is PBMCs. As to the kind of experiment: LPS-induced IL-8 release in PBMC cells (assay b). Format: cell-based, human. The settings on record: Homo sapiens, PBMC; LPS-stimulated PBMCs; read-out: IC50 Values for Inhibition of Cytokine Release, PBMCs IL-8. In short, it runs like this: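 Human PBMCs from healthy donors, isolated by density gradient, were pretreated with compound for 2 h and then stimulated with 1 ng/mL LPS (E. coli 0111:B4) for 24 h at 37° C, 5% CO2. Supernatant IL-8 and TNFα were measured by sandwich ELISA, and IC50 was taken from the dose-response curve.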

For another data set, the target named is GSK 3α (Homo sapiens (Human), UniProt P49840). As to the kind of experiment: GSK 3α enzyme inhibition (FRET, Z-LYTE, Method 2). Conditions: read-out: IC50 Values for Enzyme Inhibition, GSK3α. The data set is classed as biochemical. Put shortly: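 Human GSK3α (500 ng/mL) preincubated with compound (4, 0.4, 0.04 or 0.004 μg/mL) at RT for 2 h (Method 1) or 105 min (Method 2). Then FRET peptide (8 μM) and ATP (40 μM) added for 1 h, followed by protease development for 1 h. IC50 from the coumarin/fluorescein emission ratio relative to uninhibited control.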

Data set [7] is described as follows: Solubility in fasted-state simulated colonic fluid (FaSSCoF). The data set is classed as physicochemical. Conditions: thermodynamic from solid, pH 6.5, 25° C.; for solubility thermodynamic at 24 h: 25 °C, pH 6.5, fassgf or other biorelevant. As to the method: The solubilities of compounds of the invention in FaSSCoF at pH 6.5 are determined using a modification of a previously-reported procedure (Vertzoni, M., et al. Pharm. Res. 2010, 27, 2187-2196). In place of the bile salt extract employed in the original procedure (which extract is no longer available), the modified procedure uses a mixture of sodium taurochlorate (0.15 g), glycocholic acid (0.15 g), ursodeoxycholic acid (0.05 g), cholic acid (0.05 g), and glycodeoxycholic acid (0.05 g). These five bile acids are ground together with a mortar and pestle to produce a fine white powder that is incorporated into the FaSSCoF, as outlined below.
Tris(hydroxymethyl)aminomethane (Tris; 0.275 g) and maleic acid (0.44 g) are dissolved in water (35 mL) to give a solution whose pH is adjusted to 6.5 by treatment with 0.5M NaOH (ca. 12 mL). The solution is then made up to 50 mL with water. A portion of this Tris/maleate buffer solution (ca. 25 mL) is added to a 0.5 L round-bottomed flask, before being treated with 0.00565 g of the bile acid mixture described above. Solutions of phosphatidylcholine (0.0111 g) in DCM (0.15 mL) and palmitic acid (0.0013 g) in DCM (0.15 mL) are added, then the organic solvent is evaporated off under reduced pressure at 40° C. until a clear solution, with no perceptible DCM odour, is achieved. The volume of the evaporated solution is adjusted to 50 mL by addition of the remainder of Tris/maleate buffer, then BSA (0.115 g) is added, before being dissolved by gentle agitation.
Test compounds are suspended in the pH 6.5 FaSSCoF medium to give a maximum final concentration of ca. 6 mg/mL. The suspensions are equilibrated at 25° C. for 24 h, before being filtered through a glass fibre C filter. The filtrates are then diluted as appropriate for injection and quantification by HPLC with reference to a standard. Different volumes of the standard, diluted and undiluted sample solutions are injected and the solubilities are calculated using the peak areas determined by integration of the peak found at the same retention time as the principal peak in the standard injection.

Molecules are shown by their SMILES. Converted amounts (≈) assume the structure as drawn. Where two headings read alike, the source gives them in different places. Some results are limits rather than exact numbers.

One may read the IC50 as the concentration at which inhibition is half-maximal. The inhibition is how much of the control response was suppressed. Low values mean a weak effect, high ones a strong effect. One may read the solubility as the concentration that dissolves in the medium under given conditions.

p38 MAPKα isoform (MAPK14), sequence (Q16539 whole entry, canonical isoform): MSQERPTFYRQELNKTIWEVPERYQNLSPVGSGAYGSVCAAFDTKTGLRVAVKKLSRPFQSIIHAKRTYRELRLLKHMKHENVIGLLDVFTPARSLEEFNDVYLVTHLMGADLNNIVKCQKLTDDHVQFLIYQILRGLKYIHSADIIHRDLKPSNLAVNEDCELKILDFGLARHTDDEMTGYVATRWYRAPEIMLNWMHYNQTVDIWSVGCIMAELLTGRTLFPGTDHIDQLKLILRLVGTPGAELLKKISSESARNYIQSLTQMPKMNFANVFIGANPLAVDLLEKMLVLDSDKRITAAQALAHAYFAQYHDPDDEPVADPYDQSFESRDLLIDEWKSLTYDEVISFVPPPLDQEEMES
c-Src, sequence (P12931 whole entry, looked up): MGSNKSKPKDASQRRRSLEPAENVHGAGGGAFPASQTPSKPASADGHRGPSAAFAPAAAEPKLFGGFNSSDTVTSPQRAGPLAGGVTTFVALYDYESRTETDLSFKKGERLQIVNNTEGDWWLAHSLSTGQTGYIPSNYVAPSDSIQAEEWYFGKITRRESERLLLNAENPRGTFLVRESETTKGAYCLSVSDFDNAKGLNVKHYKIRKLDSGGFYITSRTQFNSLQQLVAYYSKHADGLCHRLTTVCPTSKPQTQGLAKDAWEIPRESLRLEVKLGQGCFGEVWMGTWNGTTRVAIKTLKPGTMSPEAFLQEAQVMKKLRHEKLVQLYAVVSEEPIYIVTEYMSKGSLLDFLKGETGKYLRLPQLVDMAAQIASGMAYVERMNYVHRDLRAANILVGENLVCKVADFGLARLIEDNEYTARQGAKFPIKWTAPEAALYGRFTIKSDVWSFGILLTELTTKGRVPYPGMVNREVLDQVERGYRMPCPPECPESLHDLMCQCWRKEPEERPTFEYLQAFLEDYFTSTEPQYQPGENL
GSK 3α, sequence (P49840 whole entry): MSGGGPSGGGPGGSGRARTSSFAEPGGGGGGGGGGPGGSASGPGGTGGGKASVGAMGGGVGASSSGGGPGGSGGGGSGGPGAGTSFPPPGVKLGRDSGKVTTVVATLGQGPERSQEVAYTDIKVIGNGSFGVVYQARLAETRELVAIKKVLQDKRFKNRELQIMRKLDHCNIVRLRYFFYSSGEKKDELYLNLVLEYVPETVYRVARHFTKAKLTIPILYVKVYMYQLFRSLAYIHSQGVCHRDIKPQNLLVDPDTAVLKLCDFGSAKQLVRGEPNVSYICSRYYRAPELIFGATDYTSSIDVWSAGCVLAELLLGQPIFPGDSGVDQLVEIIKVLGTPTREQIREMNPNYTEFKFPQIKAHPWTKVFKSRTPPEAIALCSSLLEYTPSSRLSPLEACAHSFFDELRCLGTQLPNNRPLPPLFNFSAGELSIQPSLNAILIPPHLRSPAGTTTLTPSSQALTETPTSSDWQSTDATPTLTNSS

The compound `C[C@@H]1C[C@H]2[C@@H]3CCC4=CC(=O)C=C[C@]4(C)[C@@]3(F)[C@@H](O)C[C@]2(C)[C@@]1(O)C(=O)CO` [Dexamethasone, dexamethasone, reference compound] displayed a Cell counts in data set [1] of 30.1 ± 6.4.
On to `COc1cc(Nc2cc(Oc3ccc(NC(=O)Nc4cc(C(C)(C)C)cc(CC(N)=O)c4OC)c4ccccc34)ccn2)cc(C(N)=O)c1` [Example 47, 3-((4-((4-(3-(3-(2-Amino-2-oxoethyl)-5-(tert-butyl)-2-methoxyphenyl)ureido)naphthalen-1-yl)oxy)pyridin-2-yl)amino)-5-methoxybenzamide], for which the half-maximal inhibitory concentration (IC50) is 3 nM in the data set with PBMCs [2]; 26.1 nM in the data set on HT29 cells; 34 nM at c-Src; 57.1 nM in the data set on PBMCs [4]; 36 nM in data set [5]; greater than 1510 nM against Syk. The IC50 was 2.2 nM with PBMCs [6] and 1460 nM on GSK 3α. The inhibition at 5 µg/mL with PBMCs [3] turned out to be 30.1%.
As to `COc1cc(Nc2cc(Oc3ccc(NC(=O)Nc4cc(C(C)(C)C)cc([S+](C)[O-])c4OC)c4ccccc34)ccn2)cc(C(=O)NCCN2CCN(C)CC2)c1` (centres unmarked) [Example 84, 3-((4-((4-(3-(5-(tert-Butyl)-2-methoxy-3-(methylsulfinyl)phenyl)ureido)naphthalen-1-yl)oxy)pyridin-2-yl)amino)-5-methoxy-N-(2-(4-methylpiperazin-1-yl)ethyl)benzamide], the solubility thermodynamic at 24 h is 15 µg/mL (≈ 18.9 µM) in data set [7] (Run 1, read-out: pH 6.5 FaSSCoF Solubility Run 1) and 16 µg/mL (≈ 20.2 µM) in [7] (Run 2, read-out: pH 6.5 FaSSCoF Solubility Run 2). In addition, the solubility at 24 h in [7] (fassgf or other biorelevant, read-out: Solubility in the FaSSCoF medium) was greater than 10 µg/mL. Moreover, the 50% inhibitory concentration (IC50) in the data set with PBMCs [6] amounted to 1.8 nM.
